Consider 24 compounds from ChEMBL document CHEMBL1137323, “Discovery of [4-Amino-2-(1-methanesulfonylpiperidin-4-ylamino)pyrimidin-5-yl](2,3-difluoro-6- methoxyphenyl)methanone (R547), a potent and selective cyclin-dependent kinase inhibitor with significant in vivo antitumor activity” (J Med Chem, 2006).

The target of data set [1] is Cyclin-dependent kinase 4/cyclin D1 (Homo sapiens, UniProt P11802).
Description: Inhibition of CDK4/Cyclin D1
For data set [2], the target named is Cyclin-dependent kinase 2 (Homo sapiens, UniProt P24941).
Description: Inhibition of CDK2/Cyclin E
Data set [3] addresses Cyclin-dependent kinase 1 (Homo sapiens, UniProt P06493).
Description: Inhibition of CDK1/Cyclin B
The nature of data set [4]: in vivo. The following applies: nude, mouse, iv, 10 mg/kg.
Description: Clearance in nude mouse at 10 mg/kg, iv
Data set [5] can be described thus: in vivo. Conditions: nude, mouse, iv, 10 mg/kg. This is another data set of the same source.
Description: Volume of distribution in nude mouse at 10 mg/kg, iv

Sequence of Cyclin-dependent kinase 1 (P06493 whole entry): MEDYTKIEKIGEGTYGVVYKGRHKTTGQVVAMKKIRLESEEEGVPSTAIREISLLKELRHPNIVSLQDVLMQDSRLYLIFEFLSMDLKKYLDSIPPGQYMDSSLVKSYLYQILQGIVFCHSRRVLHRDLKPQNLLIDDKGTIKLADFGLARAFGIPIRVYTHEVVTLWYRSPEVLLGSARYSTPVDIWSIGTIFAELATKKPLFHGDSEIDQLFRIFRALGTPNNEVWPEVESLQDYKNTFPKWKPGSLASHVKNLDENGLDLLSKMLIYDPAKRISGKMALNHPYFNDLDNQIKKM
Sequence of Cyclin-dependent kinase 4/cyclin D1 (P11802 whole entry): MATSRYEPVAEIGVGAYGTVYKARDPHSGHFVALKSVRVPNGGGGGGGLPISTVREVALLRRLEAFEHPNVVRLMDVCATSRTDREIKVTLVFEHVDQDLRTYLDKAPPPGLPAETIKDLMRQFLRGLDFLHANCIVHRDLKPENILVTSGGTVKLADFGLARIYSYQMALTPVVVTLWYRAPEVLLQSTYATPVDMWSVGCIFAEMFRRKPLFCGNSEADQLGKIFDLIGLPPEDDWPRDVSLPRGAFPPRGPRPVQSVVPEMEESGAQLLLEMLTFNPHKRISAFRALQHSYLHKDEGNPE
Sequence of Cyclin-dependent kinase 4/cyclin D1 (P24385 whole entry, further chain): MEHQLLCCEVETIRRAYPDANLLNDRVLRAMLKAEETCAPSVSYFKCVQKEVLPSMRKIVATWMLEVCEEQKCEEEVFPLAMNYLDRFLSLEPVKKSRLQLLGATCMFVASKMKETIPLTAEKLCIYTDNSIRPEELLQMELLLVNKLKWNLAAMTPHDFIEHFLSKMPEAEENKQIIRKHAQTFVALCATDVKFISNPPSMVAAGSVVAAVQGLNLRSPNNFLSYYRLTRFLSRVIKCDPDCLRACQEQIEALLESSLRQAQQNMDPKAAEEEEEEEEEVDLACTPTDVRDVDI

Regarding `COc1cc(F)c(F)c(F)c1C(=O)c1cnc(NC2CCN(S(C)(=O)=O)CC2)nc1N`, the Ki – broadly, the dissociation constant of the complex between target and ligand, obtained from inhibition or displacement – in data set [1] is 1 nM; in data set [2], 2 nM; in data set [3] it was 5 nM.

Turning to `CCOC(=O)N1CCC(Nc2ncc(C(=O)c3ccccc3F)c(N)n2)CC1`, the Ki in data set [1] amounted to 734 nM; in data set [2] it was 3140 nM; in data set [3], 1640 nM.

`COc1c(C(=O)c2cnc(NC3CCN(S(C)(=O)=O)CC3)nc2N)cc(F)c(F)c1F`: the Ki worked out at 267 nM in data set [1], 495 nM in data set [2] and 1670 nM in data set [3].

`CCOC(=O)N1CCC(Nc2ncc(C(=O)c3ccccc3C)c(N)n2)CC1`: the inhibitory constant (Ki) in data set [1] came to 665 nM; in data set [2], 2170 nM; in data set [3], 1110 nM.

Turning to `CN1CCN(c2ccc(Nc3ncc(C(=O)c4cccc(F)c4)c(N)n3)cc2)CC1`, the values for the Ki in data set [1], in data set [2] and in data set [3] were 450 nM, greater than 10000 nM and greater than 10000 nM, respectively.

Take `COc1ccccc1C(=O)c1cnc(NC2CCN(C)CC2)nc1N`: the Ki in data set [1] is greater than 1000 nM; in data set [2] it was greater than 10000 nM; in data set [3], 6620 nM.

Regarding `CN1CCN(c2ccc(Nc3ncc(C(=O)c4cccc(C(F)(F)F)c4)c(N)n3)cc2)CC1`, the Ki in data set [1] was greater than 1000 nM; in data set [2], greater than 10000 nM; in data set [3], greater than 10000 nM.

Take `COc1cc(F)c(F)cc1C(=O)c1cnc(NC2CCN(S(C)(=O)=O)CC2)nc1N`: the Ki was found to be 6 nM in data set [1], 6 nM in data set [2] and 14 nM in data set [3].

Turning to `CCOc1ccccc1C(=O)c1cnc(NC2CCN(C(C)=O)CC2)nc1N`, the values for the inhibitory constant (Ki) in data set [1], in data set [2] and in data set [3] were 986 nM, 2030 nM and 2500 nM, respectively.

For the compound `CCOC(=O)N1CCC(Nc2ncc(C(=O)c3ccccc3OC)c(N)n2)CC1`, the results for the inhibitory constant (Ki) in data set [1], in data set [2] and in data set [3] were 110 nM, 597 nM and 246 nM, respectively.

Consider `COc1ccccc1C(=O)c1cnc(NC2CCN(C(C)=O)CC2)nc1N`, for which the Ki in data set [1] came out at 66 nM; in data set [2], 327 nM; in data set [3] it was 181 nM.

On to `CS(=O)(=O)N1CCC(Nc2ncc(C(=O)c3c(F)cccc3F)c(N)n2)CC1`, for which the values for the inhibitory constant (Ki) in data set [1], in data set [2] and in data set [3] were 17 nM, 15 nM and 38 nM, respectively.

Consider `COc1ccc(F)cc1C(=O)c1cnc(NC2CCN(S(C)(=O)=O)CC2)nc1N`, for which the inhibition constant (Ki) in data set [1] is 7 nM; in data set [2], 7 nM; in data set [3], 14 nM. Besides, the clearance (in general, the volume of plasma or blood freed of the substance per unit of time) in the data set “in vivo [4]” is 48.3 mL/min/kg. Also, the distribution volume (Vd) (in general, the apparent volume that relates the amount in the body to the concentration in plasma or blood) in “in vivo [5]” was 0.885 L/kg.

Regarding `COc1cc(F)ccc1C(=O)c1cnc(NC2CCN(S(C)(=O)=O)CC2)nc1N`, the inhibition constant Ki in data set [1] was determined as 21 nM; in data set [2] it was 84 nM; in data set [3], 193 nM.

In the case of `COc1ccccc1C(=O)c1cnc(Nc2ccc(N3CCN(C)CC3)cc2)nc1N`, the results for the inhibition constant (Ki) in data set [1], in data set [2] and in data set [3] were 159 nM, 5140 nM and 1260 nM, respectively.

Consider `CCCC(=O)N1CCC(Nc2ncc(C(=O)c3ccccc3OC)c(N)n2)CC1`, for which the inhibition constant Ki turned out to be 98 nM in data set [1], 886 nM in data set [2] and 278 nM in data set [3].

Turning to `CN1CCN(c2ccc(Nc3ncc(C(=O)c4ccccc4C(F)(F)F)c(N)n3)cc2)CC1`, the values for the inhibitory constant (Ki) in data set [1], in data set [2] and in data set [3] were 821 nM, greater than 10000 nM and greater than 10000 nM, respectively.

Take `CCS(=O)(=O)N1CCC(Nc2ncc(C(=O)c3ccccc3OC)c(N)n2)CC1`: the Ki in data set [1] stood at 16 nM; in data set [2], 51 nM; in data set [3], 43 nM.

As to `COc1ccc(Cl)cc1C(=O)c1cnc(NC2CCN(S(C)(=O)=O)CC2)nc1N`, the inhibition constant Ki in data set [1] was 36 nM; in data set [2] it was 451 nM; in data set [3] it was 133 nM.

As to `COc1cccc(F)c1C(=O)c1cnc(NC2CCN(S(C)(=O)=O)CC2)nc1N`, the Ki was 3 nM in data set [1], 13 nM in data set [2] and 17 nM in data set [3].

Regarding `CCNC(=O)N1CCC(Nc2ncc(C(=O)c3ccccc3OC)c(N)n2)CC1`, the results for the inhibitory constant (Ki) in data set [1], in data set [2] and in data set [3] were 409 nM, 1760 nM and 1530 nM, respectively.

Regarding `COc1ccccc1C(=O)c1cnc(NC2CCNCC2)nc1N`, the Ki was 481 nM in data set [1], 6270 nM in data set [2] and 5840 nM in data set [3].

`COc1cccc(C(=O)c2cnc(Nc3ccc(N4CCN(C)CC4)cc3)nc2N)c1`: the inhibition constant (Ki) is greater than 1000 nM in data set [1], greater than 10000 nM in data set [2] and greater than 10000 nM in data set [3].

As to `Cc1ccccc1C(=O)c1cnc(Nc2ccc(N3CCN(C)CC3)cc2)nc1N`, the values for the Ki in data set [1], in data set [2] and in data set [3] were 584 nM, greater than 10000 nM and greater than 10000 nM, respectively.
